In patent publication US6589971B1, “Bis-benzazoles and their use as antineoplastic agents” (The Queens University of Belfast, priority 1999, dated 2003):
Several values for one entry are separate records, joined by “and”; a condition that tells them apart may be missing. Equal values may be shown once.

What was measured:
[1] = test system: A/T sites of a natural DNA fragment; experiment: DNase I footprinting with a natural DNA fragment; assay type: binding; settings: for DNA site preference: natural DNA fragment
Description: The ability of the head-to-head bis-benzimidazoles to discriminate between the 136 possible tetranucleotide sequences may be further enhanced by flanking sequence preferences. These remain to be systematically explored.

[2] = test system: A2780; experiment: Cytotoxicity (growth inhibition), 96 hour exposure, ovarian cell line panel; settings: read-out: Cytotoxicity IC50, A2780
Protocol: (§1) Assessment of growth inhibition was performed in a small panel of (e.g.) human ovarian carcinoma cell lines using the Sulforhodamine B (SRB assay) (Kelland et al, Cancer Research 54, 5618-5622 (1994). The cell lines grew as monolayers in Dulbecco's Modified Eagle's medium containing 10% foetal bovine serum (Imperial Laboratories, Andover, UK) supplemented with 2 mM glutamine and 0.5 μg/ml hydrocortisone in 6% CO2/94% air. The compound to be tested was dissolved in 10% dimethylsulfoxide. Cells were seeded into 96-well microtitre plates at 3000-5000 per well and allowed to attach overnight. Serial dilutions of drug in growth medium were then added to quadruplicate wells (with 8 control untreated wells) and left to incubate under normal growth conditions for 96 hr, unless otherwise stated. The medium was then removed and wells fixed with 10% trichloroacetic acid and stained with 0.4% SRB in 1% acetic acid as described previously (Kelland et al ref). Basic amino acid content in each well was then measured by solubilizing the bound SRB with 10 mM Tris and using a Titertek Multiscan MCC/340 MKII plate reader set at 540 nm. Mean absorbance was then expressed as a percentage of the control untreated well absorbance and plotted vs drug concentration. Comparisons were made in terms of IC50 values, (the concentration that reduced the mean absorbance to 50% of those in control wells) and Resistance Factors (RF, the IC50 in a resistant subline vs its parent line).

[3] = test system: A2780-PT^R; experiment: as above; settings: read-out: Cytotoxicity IC50, A2780-PT^R
Protocol: as §1

[4] = test system: CH1; experiment: as above; settings: read-out: Cytotoxicity IC50, CH1
Protocol: as §1

[5] = test system: SKOV-3; experiment: as above; settings: read-out: Cytotoxicity IC50, SKOV-3, SKOV-3 ovarian cell line
Protocol: as §1

[6] = test system: MCF-7 (breast); experiment: Growth inhibition, carcinoma cell lines (MTT assay or cell counting); assay type: cell-based; settings: 96 hour exposure, repeat determinations
Protocol: Compounds 8 and 13 were then tested more extensively against a range of carcinoma cell lines: MCF-7 (breast,); RKO and H630 (colon); A2780 and OAW42 (ovary) and H838 (lung).
Figures in bold were determined using cell counting method, all other values by the MTT assay.
The growth inhibition assays reported above were carried out using standard techniques, some examples of which are detailed below.

[7] = test system: ovarian carcinoma cell lines; experiment: Cytotoxicity across the group of four ovarian carcinoma cell lines; assay type: cell-based, human; settings: versus compounds 8 and 9; in three out of the four lines
Protocol: Assessment of growth inhibition was performed in a small panel of (e.g.) human ovarian carcinoma cell lines using the Sulforhodamine B (SRB assay) (Kelland et al, Cancer Research 54, 5618-5622 (1994). The cell lines grew as monolayers in Dulbecco's Modified Eagle's medium containing 10% foetal bovine serum (Imperial Laboratories, Andover, UK) supplemented with 2 mM glutamine and 0.5 μg/ml hydrocortisone in 6% CO2/94% air. The compound to be tested was dissolved in 10% dimethylsulfoxide. Cells were seeded into 96-well microtitre plates at 3000-5000 per well and allowed to attach overnight. Serial dilutions of drug in growth medium were then added to quadruplicate wells (with 8 control untreated wells) and left to incubate under normal growth conditions for 96 hr, unless otherwise stated. The medium was then removed and wells fixed with 10% trichloroacetic acid and stained with 0.4% SRB in 1% acetic acid as described previously (Kelland et al ref). Basic amino acid content in each well was then measured by solubilizing the bound SRB with 10 mM Tris and using a Titertek Multiscan MCC/340 MKII plate reader set at 540 nm. Mean absorbance was then expressed as a percentage of the control untreated well absorbance and plotted vs drug concentration. […]

[8] = test system: ovarian lines in the NCI 60-cell line panel; experiment: NCI 60-cell line panel; assay type: cell-based; settings: several ovarian lines
[9] = test system: transcription at A/T sites; experiment: In vitro transcription assay; assay type: biochemical
Description: Compound (13) has been examined in an in vitro transcription assay. […] In addition, compound (13) inhibited transcription at least 10-fold more efficiently than compound (9), consistent with its increased cytoxicity. It is thus tempting to speculate that the activity of (13) in vitro and in vivo may be related to its potent ability to inhibit transcription specifically at a small sub-set of A/T sites.

| SMILES | DNA site preference [1] | IC50 [2] [nM] | IC50 [3] [nM] | IC50 [4] [nM] | IC50 [5] [nM] | IC50 [6] | affinity for 5′-TATA sites ([1]; 5′-TATA sites) | Kd ([1]; quantitative DNase I footprinting, 5′-AATT site, read-out: affinity for the 5′-AATT site) [nM] | binding to AT-sites, fold better than compound (9) ([1]; relative to compound (9)) | cytotoxic activity, fold more active than the others [7] | activity in ovarian lines of NCI 60-cell line panel [8] | inhibition of transcription ([9]; at a number of A/T sites) | inhibition of transcription, fold more efficient than compound (9) ([9]; relative to compound (9)) |
| --- | --- | --- | --- | --- | --- | --- | --- | --- | --- | --- | --- | --- | --- |
| Oc1ccc(-c2nc3cc(-c4ccc5[nH]c(-c6ccc(O)cc6)nc5c4)ccc3[nH]2)cc1 [Compound 9, 4′,4′-[5,5-bi-1H-Benzimidazole]-2,2-diylbis-phenol] | interact preferentially with some A/T sites | 4300 | 2700 | 1050 | 16000 | – | – | – | – | – | – | – | – |
| CN1CCN(c2ccc3[nH]c(-c4ccc5[nH]c(-c6ccc(O)cc6)nc5c4)nc3c2)CC1 [Hoechst 33258, reference compound] | – | 12000 | 9500 | 26500 | > 100000 | – | – | – | – | – | – | – | – |
| CN(C)CCCOc1ccc(-c2nc3cc(-c4ccc5[nH]c(-c6ccc(OCCCN(C)C)cc6)nc5c4)ccc3[nH]2)cc1 [Compound 13, 2,2-bis-[4′-(3″-Dimethylamino-1″-propyloxy)phenyl]-5,5-bi-1H-benzimidazole] | interact preferentially with some A/T sites | 235 | 115 | 240 | 375 | 43 nM and 69 nM | relatively low affinity | 30 | 7-10 fold | over 10 fold | significant activity | effectively inhibits transcription at a number of A/T sites | at least 10 fold |
